Here are results for one molecule from patent publication US20100113596A1, “Method for inhibiting liver fibrosis via retinoic acid derivative” (priority 2008, published 2010).

For data set [1], the system named is TGF-β-induced ROS in HSC-T6 cells. The data set can be described thus: ROS assay on TGF-β1 and PL-treated HSC-T6 cells (DCFH-DA, flow cytometry). In kind it is cell-based. To be noted: pretreatment with 30˜300 nM PL, TGF-β1 2 ng/ml. On the procedure: (§1) Cells were incubated with 2 ng/ml of TGF-β and PL for 5 hours and analyzed for the oxidation state using 7-dichlorodihydrofluorescein diacetate (DCFH-DA) as a fluorogenic probe and flow cytometer (FACSCalibur). The cells were recovered with 0.01% trypsin and the cellular fluorescence intensity was measured after 30 min incubation of 5 μM DCFHDA. For each analysis, 10,000 events were recorded. Cells were collected in 0.01% trypsin, fixed with 3.7% formaldehyde, permeabilized with 0.02% Triton X-100 in PBS, and stained for a-SMA as described previously. For detecting a-SMA using flow cytometry, cells were treated with 2 ng/ml of TGF-β and PL for 12 hours and immunostained with α-SMA-specific antibody (Santa Cruz) and FITC-conjugated secondary antibody (Molecular Probe). Then the cells were recovered and subjected to flow cytometer, and PL can effectively eliminate radicals as ROS decreased with increasing dosages of PL, as referred to FIG. 1.
ROS intermediates act as signaling molecules of TGF-β in regulation of inflammatory and fibrotic responses. Therefore, first select marker was to determine whether PL could be an antioxidant to block TGF-β-induced ROS in HSC-T6 cells. The intracellular oxidation state of the cell was analyzed by flow cytometry, when ROS were induced by TGF-β1 (2 ng/ml). […]
Background: In flow cytometry, cells or beads pass a laser one at a time.

For data set [2], the system named is [Ca2+]i in TGF-β treated HSC-T6 cells. The data set can be described thus: Measurement of cytosolic Ca2+ ([Ca2+]i) with fura-2. It is filed as cell-based. To be noted: HSC-T6 cells treated with PL, then TGF-β1 added; compared with positive control. On the procedure:
Trypsinized cells (10^6/ml) were recovered 4 h after culture with PL and loaded with 2 μM fura-2/acetoxy methyl (fura-2/AM) for 30 min at 25° C. before stimulating with TGF-β (2ng/ml). Cells were gently shaken for several seconds every 10 min to prevent re-attachment. Cells were washed and resuspended in Ca^2+-containing medium. Fura-2 fluorescence measurements were performed in a water-jacketed cuvette with continuous stirring at 25° C. Fluorescence was monitored with a Hitachi F-2500 fluorescence spectrophotometer by recording excitation signals at), and 380 nm and emission signals at 510 nm at 1-s intervals.
Therefore, we examined whether PL could change the concentration of [Ca^2+]i in TGF-β treated cells. Activation of HSC, the main source of liver collagen, involves the induction of α-SMA, conversing from quiescent to proliferation, and secretion of collagen. After treatment with PL, TGF-β1 was added to HSC-T6 cells and the [Ca^2+]i was measured immediately (FIG. 2). PL decreased the protein levels of α-SMA, which was detected by both flow cytometry and Western blot (FIG. 3). The results imply that a trace amount of PL is sufficient enough to block-[Ca^2+]i and down-regulate α-SMA expression.

The test system of data set [3] is α-SMA. The data set can be described thus: α-SMA expression in HSC-T6 cells (flow cytometry and Western blot). In kind it is cell-based. To be noted: TGF-β and PL, compared with positive control. The method, then:
as §1
Liver tissues were homogenized in RIPA buffer and centrifuged as described; supernatant was taken as a whole-cell lysate. […]
Therefore, we examined whether PL could change the concentration of [Ca^2+]i in TGF-β treated cells. […] After treatment with PL, TGF-β1 was added to HSC-T6 cells and the [Ca^2+]i was measured immediately (FIG. 2). PL decreased the protein levels of α-SMA, which was detected by both flow cytometry and Western blot (FIG. 3). […]

A further data set concerns collagen (Col 1A2). The data set can be described thus: Col 1A2 expression, immunostaining of HSC-T6 cells treated with TGF-β and PL. To be noted: HSC-T6 cells treated with TGF-β and 30, 150 or 300 nM PL for 4 hours. In kind it is cell-based. The method, then: It has been shown that TGF-β plays a major role in fibrogenesis via the activation of HSC. After the HSC-T6 cells were treated with TGF-β and PL for 4 hours, the cells were subjected to immunostaining and observed under a fluorescence microscopy, as shown in FIG. 4.

The subject of data set [4] is α-SMA. The data set can be described thus: α-SMA expression in liver tissue of TGF-β1 transferred fibrotic mice. It is filed as in vivo. To be noted: PL i.p. 30, 150 or 300 μg/kg, compared with the positive controls. On the procedure: (§2) The eight-week-old BALB/c mice were fed ad libitum standard laboratory chow and water with or without 25 mM ZnSO4 plus 5% sucrose. PL was given intraperitoneally (i.p.) at 30, 150 or 300 μg/kg. The animals were hydrodynamically injected with pPK9a plasmid containing TGF-β1 gene through tail vein and simultaneously fed with ZnSO4(25 mM) and PL as reported. After 48 h, the mice were sacrificed for liver sections.
(§3) […] of plasmid (pPK9a) was dissolved in 3.0 ml Ringer's solution and injected in bolus into the tail vein in a short duration of 5˜7 seconds according to the hydrodynamics-based transfection protocol as described. ZnSO4(25 mM) was dissolved in the drinking water to activate the metallothionein promoter and stimulate TGF-β1 expression.
Mouse liver tissues were embedded in an optimal cutting temperature compound (Miles Inc.) and frozen in liquid nitrogen. […]

A further data set concerns p-Smad2/3. The data set can be described thus: TGF-β-induced p-Smad2/3 and Smad4 translocation into nucleus (Western blot, immunocytostaining). In kind it is cell-based. From the text: Translocation of phosphorylated Smad complexes into nucleus is one of the key steps in signal transduction of the liver fibrosis. In activated HSC there is an elevated accumulation of p-Smad2/3 and Smad4 in nucleus. To understand how PL regulates Smad signaling pathway, we first determined the amount of Smad complexes using Western blot.

The next data set has as its system Sp1. The data set can be described thus: Sp1 binding activity (EMSA) in liver of pPK9a-transferred mice fed with ZnSO4 water. In kind it is in vivo, mouse. To be noted: TGF-β1-induced increase. On the procedure: as §2, §3
Since Sp1 is a critical mediator of Col 1A2 expression, we examined the effects of PL on Sp1 binding activity in pPK9a-transferred mice fed with ZnSO4 water.
On the technique in general: A gel shift assay detects complexes by their altered migration in electrophoresis.

As to `CC1=C(/C=C/C(C)=C/C=C/C(C)=C/C(=O)O)C(C)(C)CCC1` [PL], the “ROS generated by TGF-β1” value in data set [1] is reported as “sufficiently eliminate the ROS generated by TGF-β1 in a dose-dependent manner”. The “intracellular calcium [Ca2+]i” value in data set [2] was “significantly reduced”. The α-SMA expression entry with α-SMA [3] is “significantly reduced”. In the data set with collagen (Col 1A2), the “expression of Col 1A2” value turned out to be 0.001%. Further, the “α-SMA expression in liver tissue” value in the data set with α-SMA [4] was “markedly inhibited”. Also, the “amount of p-Smad2/3 in the cell nucleus” value in the data set on p-Smad2/3 (Western blot) is reported as “decreased the amount of p-Smad2/3 in the cell nucleus in a dose-dependent manner”. Moreover, the “transport of p-Smad2/3 into cell nucleus” value in the data set with p-Smad2/3 (immunocytostaining) is “decreased the transport of p-Smad2/3 into cell nucleus also in a dose-dependent manner”. In the data set on Sp1, the Sp1 binding activity entry is “the increase was reversed by PL treatment”.
